Data published in US20260306460A1, “COMPOSITION FOR REMOVING AND INHIBITING SENESCENT CELLS, AND USES THEREOF” (LIFECEUTIX CO., LTD., priority 2023, published 2026).

How the values were obtained:
[1] = tested on: naturally aged C57BL6J mice; assay: SASP mRNA (MMP3, IL1B, MMP12, IL6, MMP13) in naturally aged mice, Example 21-6, Table 22; type: in vivo, mouse; details: untreated aged = 100%
Procedure: 22-month-old female C57BL6J mice (KRIBB Laboratory Animal Resource Center) were acclimated to the experimental environment for one week, after which the aged mice were randomly assigned to experimental and control groups. Eight-week-old, non-aged mice served as controls. LX-403 was mixed in a 10% ethanol solution of PEG400 and administered orally at a concentration of 25 mg/kg daily for 21 days, or administered to the skin, joints, or eyes at a concentration of 1 μM. LX-1801 was mixed in distilled water with 4% DMSO, 30% PEG300, and 5% Tween80 and administered to the skin, joints, or eyes at a concentration of 0.4 μM daily for 21 days. LX-2001 was mixed in PBS and administered to the skin, joints, or eyes at a concentration of […] daily for 21 days. LX-2002 was mixed in distilled water with 4% DMSO, 30% PEG300, and 5% Tween80 and administered to the skin, joints, or eyes at a concentration of 2 μM daily for 21 days. […] LX-2005 was mixed in distilled water with 4% DMSO, 30% PEG300, and 5% Tween80 and administered to the skin, joints, or eyes at a concentration of 90 μM daily for 21 days. LX-2007 was mixed in distilled water with 4% DMSO, 30% PEG300, and 5% Tween80 and administered to the skin, joints, or eyes at a concentration of 90 μM daily for 21 days. […] LX-3002 was mixed in distilled water with 4% DMSO, 30% PEG300, and 5% Tween80 and administered orally at a concentration of 10 mg/kg daily for 21 days. […] LX-5411 was mixed in 5% PBS and administered orally at a concentration of 10 mg/kg daily for 21 days or administered to the skin, joints, or eyes at a concentration of 3 μM. LX-5701 was mixed in PBS and administered orally at a concentration of 360 mg/kg daily for 21 days. LX-6807 was mixed in saline and administered intraperitoneally at a concentration of 1 mg/kg daily for 21 days. LX-2101 or LX-2102 was mixed in PBS solution with 5% DMSO and administered intraperitoneally at a concentration of 20 mg/kg or 10 mg/kg, respectively, daily for 21 days. The control group received only the solution in the same volume. After the end of drug administration, the methods described in each example below were performed.
Using cDNA synthesized in the same manner as Example 7-2 of WO2023-085787 A1, qRT-PCR was performed and analyzed for the senescence-associated secretory factors (SASPs) MMP3, IL1B, MMP12, IL6, and MMP13. […] The mRNA levels of each factor after aging induction were calculated as 100% and compared with the mRNA levels of each factor after test compound treatment.

[2] = tested on: doxorubicin-induced aged C57BL6J mice; assay: Fatigue, weakness and weight loss in doxorubicin-aged mice, Example 22-7, Table 36; type: in vivo, mouse; details: for Grip Sterenght Test Strength / Open Field Test Time in Center / Wire Hanging Test Time: amount after aging calculated as 100%; for Mean Body Weight: untreated 20.8 (±1.7)
Procedure: Eight-week-old male C57BL6J mice (KRIBB Laboratory Animal Resource Center) were acclimated to the experimental environment for one week. […] The aging-induced mice were randomly assigned to experimental and control groups. […] The control group received only the solution in the same volume. After the end of drug administration, the methods described in each example below were performed.
The amount of each evaluation after aging was calculated as 100% and compared with the amount of each evaluation after test compound treatment.

[3] = tested on: doxorubicin-induced aged C57BL6J mice; assay: Liver damage (AST, ALT) in doxorubicin-aged mice, Example 22-8, Table 37; type: in vivo, mouse; details: serum, amount after aging calculated as 100%
Procedure: Eight-week-old male C57BL6J mice (KRIBB Laboratory Animal Resource Center) were acclimated to the experimental environment for one week. […] The aging-induced mice were randomly assigned to experimental and control groups. […] The control group received only the solution in the same volume.
The amounts were measured spectrophotometrically using a kit (Sigma) according to the manufacturer's instructions. […] The amount of each factor after aging was calculated as 100% and compared with the amount of each factor after treatment with the test compound.

[4] = tested on: doxorubicin-induced aged C57BL6J mice; assay: Bone marrow function (CAFC assay) in doxorubicin-aged mice, Example 22-12, Table 41; type: in vivo, mouse; details: bone marrow of doxorubicin-induced aged mice, 5 weeks of culture; untreated 1.8 (±0.1)
Procedure: Eight-week-old male C57BL6J mice (KRIBB Laboratory Animal Resource Center) were acclimated to the experimental environment for one week. Afterwards, the anticancer agent doxorubicin was administered intraperitoneally at a concentration of 10 mg/kg, inducing aging for more than 10 days. The aging-induced mice were randomly assigned to experimental and control groups. LX-403 was mixed with a 10% ethanol solution of PEG400 and administered orally at a concentration of 25 mg/kg or intradermally at a concentration of 1 μM for 21 days. LX-1801 was mixed in distilled water with 4% DMSO, 30% PEG300, and 5% Tween80 and administered intradermally at a concentration of 0.4 μM daily for 21 days. LX-2001 was mixed in PBS and administered intradermally at a concentration of 2 μM daily for 21 days. LX-2002 was mixed in distilled water with 4% DMSO, 30% PEG300, and 5% Tween80 and administered intradermally at a concentration of 2 μM daily for 21 days. […] LX-2005 was mixed in distilled water with 4% DMSO, 30% PEG300, and 5% Tween80 and administered intradermally at a concentration of 90 μM daily for 21 days. LX-2007 was mixed in distilled water with 4% DMSO, 30% PEG300, and 5% Tween80 and administered intradermally at a concentration of 90 μM daily for 21 days. […] LX-3002 was mixed in distilled water with 4% DMSO, 30% PEG300, and 5% Tween80 and administered orally at a concentration of 10 mg/kg daily for 21 days. […] LX-5411 was mixed in 5% phosphate-buffered saline (PBS) and administered orally at a concentration of 10 mg/kg daily for 21 days or intradermally at a concentration of 3 μM. LX-5701 was mixed in PBS and administered orally at a concentration of 360 mg/kg daily for 21 days. LX-6807 was mixed in saline and administered intraperitoneally at a concentration of 1 mg/kg daily for 21 days. The control group received only the solution in the same volume. After the end of drug administration, the methods described in each example below were performed.
Damage to the immune system, including the bone marrow, after chemotherapy is known to induce inflammatory responses and contribute to drug resistance and adverse effects. To analyze the function of bone marrow hematopoietic cells in mice induced to age by the anticancer agent, a cobblestone-area-forming-cell (CAFC) assay was performed. Specifically, bone marrow cells (BMCs) were collected from the femurs and tibias of mice, and BM-MNCs (mono-nuclear cells) were cultured in MethoCult™ GF M3434 methylcellulose medium (Stem Cell™ Technologies Inc, Canada). FBMD-1 stromal cells were seeded in each well of a 96-well plate to prepare a support cell stromal layer. […] After 5 weeks of culture, CAFCs were counted using an optical microscope.

senescent A549 cells = assay: Viability of senescent A549 cells (CellTiter-Glo), Example 18, Table 15; details: Homo sapiens, A549, read-out: Survival (%)
Procedure: Senescence-induced cancer cells treated with doxorubicin were treated with the test compound at designated concentrations, and cell viability was measured using the CellTiter-Glo Luminescent Cell Viability Assay (Promega).

senescent human cells = assay: Viability of doxorubicin-induced senescent human cells (CellTiter-Glo), Example 11; type: cell-based
Procedure: Cells in which senescence was induced by treatment with doxorubicin were treated with the test compound at designated concentrations and measured using the CellTiter-Glo Luminescent Cell Viability Assay (Promega).
After 3 days, cell viability was measured using CellTiter-Glo Luminescent Cell Viability Assay (Promega) or light microscopy.

Molecule: CC1(C)CC[C@]2(NC(=O)C(C)(F)F)CC[C@]3(C)[C@H](C(=O)C=C4[C@@]5(C)C=C(C#N)C(=O)C(C)(C)[C@@H]5CC[C@]43C)[C@@H]2C1 [LX-2101, Omaveloxolone]
- MMP13 mRNA (%), Eye [1]: 35%
- IL1β mRNA (%), Kidney [1]: 73%
- MMP13 mRNA (%), Knee joint [1]: 46%
- MMP3 mRNA (%), Liver [1]: 45%
- MMP12 mRNA (%), Lung [1]: 58%
- IL6 mRNA (%), Muscle [1]: 69%
- MMP3 mRNA (%), Skin [1]: 81%
- MMP12 mRNA (%), Skin [1]: 82%
- MMP13 mRNA (%), Skin [1]: 38%

Molecule: CCCC\C=C/C=C/C=C\CCCCCCCC(=O)O [LX-2707, Punicic acid]
- Grip Sterenght Test Strength [2]: 128 (±5.7) %
- Open Field Test Time in Center [2]: 232 (±33.6) %
- Wire Hanging Test Time [2]: 192 (±12.7) %
- Mean Body Weight [2]: 22.4 (±2.1) g
- ALT [3]: 76 (±5.6) %
- AST [3]: 70 (±3.2) %
- CAFCs/10^5 BMCs [4]: 2.7 (±0.2) CAFCs/10^5 BMCs

Molecule: C#CC(=O)N1[C@@H](CCCC)Cc2cc(OC)ccc2[C@@H]1c1ccc(NC23CC4CC(CC(C4)C2)C3)cc1 [LX-5411]
- viability at 1.1 µM (senescent A549 cells): 75.4%
- viability at 10 µM (senescent A549 cells): 5.3%

Molecule: O=C1C2CCN(CC2)C1CNC(=O)C(F)(F)F (stereo not shown) [LX-5701]
- MMP13 mRNA (%), Eye [1]: 71%
- IL1β mRNA (%), Kidney [1]: 58%
- MMP13 mRNA (%), Knee joint [1]: 61%
- MMP3 mRNA (%), Liver [1]: 59%
- MMP12 mRNA (%), Lung [1]: 70%
- IL6 mRNA (%), Muscle [1]: 38%
- MMP3 mRNA (%), Skin [1]: 79%
- MMP12 mRNA (%), Skin [1]: 71%
- MMP13 mRNA (%), Skin [1]: 62%
- Grip Sterenght Test Strength [2]: 117 (±6.9) %
- Open Field Test Time in Center [2]: 192 (±24.3) %
- Wire Hanging Test Time [2]: 139 (±8.2) %
- Mean Body Weight [2]: 23.0 (±2.8) g
- ALT [3]: 64 (±15.7) %
- AST [3]: 72 (±13.5) %
- CAFCs/10^5 BMCs [4]: 3.3 (±0.2) CAFCs/10^5 BMCs
- viability at 1.1 µM (senescent A549 cells): 82.3%
- viability at 10 µM (senescent A549 cells): 43.8%
- viability at 30 µM (senescent A549 cells): 16.2%

Molecule: COC(=O)[C@H]1Cc2c([nH]c3ccccc23)[C@H](c2ccc(S(C)(=O)=O)cc2)N1C(=O)CCl [LX-5401, methyl (1S,3R)-2-(2-chloroacetyl)-1-(4-(methylsulfonyl)phenyl)-2,3,4,9-tetrahydro-1H-pyrido[3,4-b]indole-3-carboxylate]
- viability at 1.1 µM (senescent A549 cells): 92.7%
- viability at 10 µM (senescent A549 cells): 43.8%
- viability at 30 µM (senescent A549 cells): 1.9%

Molecule: S=C(N/N=C1\CCCc2cccnc21)N1CCN(c2ccccn2)CC1 [LX-801]
- Survival (senescent human cells; 1.1 μM, 0 μM = 100): 50.5%
- Survival (senescent human cells; 10 μM, 0 μM = 100): 28.2%
- Survival (senescent human cells; […], 0 μM = 100): 48.9%

Molecule: Tocofersolan [LX-3001]
- Survival (senescent human cells; 1.1 μM, 0 μM = 100): 74.8%
- Survival (senescent human cells; […], 0 μM = 100): 1.1%
- Grip Sterenght Test Strength [2]: 120 (±9.3) %
- Wire Hanging Test Time [2]: 127 (±13.3) %
- Mean Body Weight [2]: 21.2 (±1.3) g
- CAFCs/10^5 BMCs [4]: 2.1 (±0.2) CAFCs/10^5 BMCs

Molecule: COC(=O)[C@]12CCC(C)(C)C[C@H]1[C@H]1C(=O)C=C3[C@@]4(C)C=C(C#N)C(=O)C(C)(C)[C@@H]4CC[C@@]3(C)[C@]1(C)CC2 [LX-2102, Bardoxolone methyl]
- MMP13 mRNA (%), Eye [1]: 71%
- IL1β mRNA (%), Kidney [1]: 68%
- MMP13 mRNA (%), Knee joint [1]: 77%
- MMP3 mRNA (%), Liver [1]: 56%
- MMP12 mRNA (%), Lung [1]: 66%
- IL6 mRNA (%), Muscle [1]: 81%
- MMP3 mRNA (%), Skin [1]: 83%
- MMP12 mRNA (%), Skin [1]: 78%
- MMP13 mRNA (%), Skin [1]: 68%

Molecule: COC(=O)c1ccc([C@H]2c3[nH]c4ccccc4c3C[C@H](C(=O)OC)N2C(=O)CCl)cc1 [LX-405]
- induced death of cells (senescent human cells; senescent foreskin cells, 30 μM, 3 days): induced the death of most cells

Molecule: Cc1cccc([C@H](C)c2cnc[nH]2)c1C [LX-6807, Dexmedetomidine]
- Grip Sterenght Test Strength [2]: 137 (±6.3) %
- Open Field Test Time in Center [2]: 249 (±34.1) %
- Wire Hanging Test Time [2]: 209 (±14.5) %
- Mean Body Weight [2]: 23.2 (±2.7) g
- ALT [3]: 80 (±6.7) %
- AST [3]: 75 (±7.0) %
- CAFCs/10^5 BMCs [4]: 3.5 (±0.2) CAFCs/10^5 BMCs
- viability at 1.1 µM (senescent A549 cells): 94.1%
- viability at 10 µM (senescent A549 cells): 76.5%
- viability at 30 µM (senescent A549 cells): 6.6%

Molecule: C[C@H]1[C@H](C)CC[C@]2(C(=O)O)CC[C@]3(C)C(=CC[C@@H]4[C@@]5(C)CC[C@H](O)C(C)(C)[C@@H]5CC[C@]43C)[C@H]12 [LX-2001, Ursolic acid]
- viability at […] (senescent human cells; Homo sapiens, 3.3 μM, 0 μM = 100, read-out: Survival): 0.8%
